Test results taken from patent US11357834B2, “Recombinant α-galactosidase A for treatment of Fabry disease” (Amicus Therapeutics, Inc., priority 2017, dated 2022).

Experiments:
[1] = human, in vivo, po, 1250 mg
[2] = cited from earlier work
[3] = Predicted human migalastat exposure after single IV dose and exposure margins
Text: (§1) Selection of Doses in the Study: The current single dose levels were selected on the basis of predicted human PK following IV dosing, non-clinical safety margins, and target therapeutic migalastat exposures for efficacy.

[4] = General toxicology NOAEL, rat; parameters: AUC: dose or concentration left out as unconfirmed; conditions: in vivo
in vivo = conditions: monkey, 500 mg/kg/day
Text: as §1

[5] = Phase 1 IV and oral migalastat HCl pharmacokinetics in healthy volunteers; type: in vivo, human
Protocol: Healthy volunteers received migalastat HCl via the IV route of administration to evaluate safety, tolerability, and pharmacokinetics. Another study was performed to determine the absolute bioavailability of migalastat after an oral capsule dose as compared to an IV administered dose of migalastat HCl in healthy volunteers.
Type of Study: This Phase 1 study was a single-center study consisting of 2 designs. Cohorts 1, 2, and 3 were performed according to a randomized, double-blind, placebo-controlled, single ascending dose (SAD) IV study design to evaluate the safety, tolerability, and PK of IV administered migalastat HCl or IV administered placebo in healthy subjects. Cohort 4 was an open-label, randomized two-way crossover arm designed to assess the absolute bioavailability of orally administered migalastat HCl relative to IV administered migalastat HCl in healthy subjects.
Cohorts 1, 2, 3: Subjects in Cohorts 1, 2, and 3 received IV administered single ascending doses of migalastat HCl. Seven subjects were enrolled into each cohort (5 subjects randomized to migalastat HCl and 2 subjects randomized to placebo). Dosing of Cohorts 1, 2, and 3 was staggered to allow for safety and tolerability review before proceeding with the next group. Therefore, Cohorts 1, 2, and 3 were each divided into 2 sub-groups: Group A (2 subjects randomized to migalastat HCl and 1 subject randomized to placebo) and Group B (3 subjects randomized to migalastat HCl and 1 subject randomized to placebo). Subjects in Group B were dosed the day following completion of Group A dosing. Except for Cohort 3B, which was dosed 31 days after Cohort 3A because an interim PK review was performed on emerged data from Cohort 3A.
Cohort 4 was randomized such that 5 subjects received the oral formulation and 5 subjects received the IV formulation during Period 1, followed by the alternate formulation during Period 2. • *During Period 1, all Day −1 through Day 3 assessments were performed. ** The washout period was 7 days. *** During Period 2, subjects repeated all Day −1 through Day 3 assessments.
Subjects enrolled in Cohorts 1, 2, and 3 were randomized to receive one of the following doses of migalastat HCl (n=5) or placebo (n=2):

GL-3 and plasma lyso-Gb3 [6] = test: Single bolus IV administration efficacy, necropsy 7 days after dose (Example 10); type: in vivo, Gla KO mice
Protocol: The efficacy of rhα-Gal A 01-003 with and without migalastat and Fabrazyme (agalsidase beta) were compared. Enzyme was administered via a single bolus infusion into Gla KO mice with or without co-formulation with migalastat. ˜18 week old male Gla KO mice (7 per group) were given a single bolus IV administration and necropsies were performed 7 days after dose. The treatment groups are shown in Table 15 and the results are shown in FIGS. 21A-21D and Tables 16-19.

GL-3 and plasma lyso-Gb3 [7] = test: Repeat administration efficacy, two bi-weekly IV administrations (Example 9); type: in vivo, Gla KO mice; conditions: enzyme alone, 1 to 10 mg/kg
Protocol: The efficacy of rhα-Gal A 01-003 with and without migalastat and Fabrazyme (agalsidase beta) were compared. Enzyme was administered via a bolus infusion into Gla KO mice with or without co-formulation with 3 mg/kg migalastat. ˜16 week old male Gla KO mice (n=8; 72 in total) were given two bi-weekly IV administrations.

GL-3 = GL-3 one week after single IV administration (Example 7); type: in vivo, Gla KO mice; conditions: 1 mg/kg enzyme IV, one week post-administration
Protocol: Gla KO mice were administered 1 mg/kg of enzyme IV and GL-3 measured one week post-administration.

GL-3 and plasma lyso-Gb3 [8] = test: Substrate reduction seven days after single administration (Example 6); type: in vivo, Gla KO mice; conditions: 3 mg/kg enzyme
Protocol: The effect on substrate reduction when combining these enzymes in a co-formulation with migalastat was also assessed. […]
In addition to assessment of enzyme activity in tissues, the degree of substrate reduction seven days post-administration was determined.

Cl.OC[C@H]1NC[C@H](O)[C@@H](O)[C@H]1O [Migalastat HCl, migalastat HCl]
Maximum observed individual AUC [1]: 115.9 µg·h/mL | Maximum observed individual Cmax [1]: 21900 ng/mL | Median observed individual AUC [1]: 73.2 µg·h/mL | Median observed individual Cmax [1]: 13000 ng/mL | Minimum observed individual AUC [1]: 28.9 µg·h/mL | Minimum observed individual Cmax [1]: 4780 ng/mL | maximum exposure (AUC) [1]: 116 µg·h/mL | exposure linearity ([2]; oral administrations, to 1250 mg): linear exposures | tissue uptake of active α-Gal A into skin ([2]; phase 2a, 23 Fabry patients, single oral 150 mg co-administered with 0.2, 0.5, and 1.0 mg/kg agalsidase): improved tissue uptake of active α-Gal A into skin | Fold Cover to AUC from human oral 1250 mg, Max ([3]; 0.3 mg/kg IV): 62 | Fold Cover to AUC from human oral 1250 mg, Median ([3]; 0.3 mg/kg IV): 39 | Fold Cover to AUC from human oral 1250 mg, Min ([3]; 0.3 mg/kg IV): 15.5 | Fold Cover to Cmax from human oral 1250 mg, Max ([3]; 0.3 mg/kg IV): 61 | Fold Cover to Cmax from human oral 1250 mg, Median ([3]; 0.3 mg/kg IV): 36 | Fold Cover to Cmax from human oral 1250 mg, Min ([3]; 0.3 mg/kg IV): 2.6 | Fold Cover to NOAEL AUC, Monkey ([3]; 0.3 mg/kg IV): 165 | Fold Cover to NOAEL AUC, Rat ([3]; 0.3 mg/kg IV): 134 | Fold Cover to NOAEL Cmax, Monkey ([3]; 0.3 mg/kg IV): 68 | Fold Cover to NOAEL Cmax, Rat ([3]; 0.3 mg/kg IV): 65 | Fold Cover to AUC from human oral 1250 mg, Max ([3]; 10.0 mg/kg IV): 1.89 | Fold Cover to AUC from human oral 1250 mg, Median ([3]; 10.0 mg/kg IV): 1.19 | Fold Cover to AUC from human oral 1250 mg, Min ([3]; 10.0 mg/kg IV): 0.47 | Fold Cover to Cmax from human oral 1250 mg, Max ([3]; 10.0 mg/kg IV): 1.81 | Fold Cover to Cmax from human oral 1250 mg, Median ([3]; 10.0 mg/kg IV): 1.07 | Fold Cover to Cmax from human oral 1250 mg, Min ([3]; 10.0 mg/kg IV): 0.08 | Fold Cover to NOAEL AUC, Monkey ([3]; 10.0 mg/kg IV): 4.98 | Fold Cover to NOAEL AUC, Rat ([3]; 10.0 mg/kg IV): 4.05 | Fold Cover to NOAEL Cmax, Monkey ([3]; 10.0 mg/kg IV): 2.02 | Fold Cover to NOAEL Cmax, Rat ([3]; 10.0 mg/kg IV): 1.93 | AUC [4]: 249 µg·h/mL | Cmax at Rat NOAEL ([4]; 1500 μg/kg/day): 23400 ng/mL | AUC (in vivo): 306 µg·h/mL | maximum arithmetic mean plasma concentration, IV dosing relative to oral dosing ([5]; 150 mg IV vs 150 mg oral): approximately 2 fold | time of maximum arithmetic mean plasma concentration after start of infusion ([5]; IV 150 mg, 2-hour infusion): 2 h | dose dependence of mean plasma concentration-time profiles ([5]; increasing IV doses 0.3 to 10 mg/kg): clear dose-dependent increase in plasma concentrations | time of maximum arithmetic mean plasma concentration after start of infusion ([5]; single 2-hour IV infusion, 0.3 to 10 mg/kg): 2 h

Fabrazyme: homodimeric recombinant human α-Gal A marketed by Genzyme under the name Fabrazyme
GL-3 levels Heart (GL-3 and plasma lyso-Gb3 [6]; 1 mg/kg): 183.23 μg/g tissue | GL-3 levels Kidney (GL-3 and plasma lyso-Gb3 [6]; 1 mg/kg): 443 μg/g tissue | GL-3 levels Skin (GL-3 and plasma lyso-Gb3 [6]; 1 mg/kg): 1465 μg/g tissue | Plasma lyso-Gb3 levels (GL-3 and plasma lyso-Gb3 [6]; 1 mg/kg): 122 ng/mL | GL-3 levels Heart (GL-3 and plasma lyso-Gb3 [6]; 10 mg/kg): 53.20 μg/g tissue | GL-3 levels Kidney (GL-3 and plasma lyso-Gb3 [6]; 10 mg/kg): 281 μg/g tissue | GL-3 levels Skin (GL-3 and plasma lyso-Gb3 [6]; 10 mg/kg): 207 μg/g tissue | Plasma lyso-Gb3 levels (GL-3 and plasma lyso-Gb3 [6]; 10 mg/kg): 29.5 ng/mL | GL-3 levels Heart (GL-3 and plasma lyso-Gb3 [6]; 25 mg/kg): 21.10 μg/g tissue | GL-3 levels Kidney (GL-3 and plasma lyso-Gb3 [6]; 25 mg/kg): 203 μg/g tissue | GL-3 levels Skin (GL-3 and plasma lyso-Gb3 [6]; 25 mg/kg): 102 μg/g tissue | Plasma lyso-Gb3 levels (GL-3 and plasma lyso-Gb3 [6]; 25 mg/kg): 18.1 ng/mL | GL-3 in heart and kidney, dose-response (GL-3 and plasma lyso-Gb3 [7]): good dose-response | GL-3 in skin and plasma lyso-GB3, dose-response (GL-3 and plasma lyso-Gb3 [7]): good dose-response

rhα-Gal A 01-003: recombinant human α-galactosidase A produced by CHO cell clone 01-003
α-Gal A substrate (GL-3) in heart and kidney (GL-3): able to reduce α-Gal A substrate in heart and kidney | GL-3 levels Heart (GL-3 and plasma lyso-Gb3 [6]; 10 mg/kg): 30.30 μg/g tissue | GL-3 levels Kidney (GL-3 and plasma lyso-Gb3 [6]; 10 mg/kg): 277 μg/g tissue | GL-3 levels Skin (GL-3 and plasma lyso-Gb3 [6]; 10 mg/kg): 149 μg/g tissue | Heart GL-3 % reduction compared to Fabrazyme (10 mg/kg) (GL-3 and plasma lyso-Gb3 [6]; 10 mg/kg): 43.05% | Kidney GL-3 % reduction compared to Fabrazyme (10 mg/kg) (GL-3 and plasma lyso-Gb3 [6]; 10 mg/kg): 1.42% | Plasma lyso-Gb3 % reduction compared to Fabrazyme (10 mg/kg) (GL-3 and plasma lyso-Gb3 [6]; 10 mg/kg): 2.71% | Plasma lyso-Gb3 levels (GL-3 and plasma lyso-Gb3 [6]; 10 mg/kg): 28.7 ng/mL | Skin GL-3 % reduction compared to Fabrazyme (10 mg/kg) (GL-3 and plasma lyso-Gb3 [6]; 10 mg/kg): 28.02% | overall substrate reduction (GL-3 and lyso-Gb3) (GL-3 and plasma lyso-Gb3 [6]; rhα-Gal A 10 mg/kg): greater substrate reduction than an equivalent dose of Fabrazyme | GL-3 in heart and kidney, dose-response (GL-3 and plasma lyso-Gb3 [7]): good dose-response | GL-3 in skin and plasma lyso-GB3, dose-response (GL-3 and plasma lyso-Gb3 [7]): good dose-response

rhα-Gal A 04-023: recombinant human α-galactosidase A produced by CHO cell clone 04-023
plasma lyso-Gb3 compared to Fabrazyme alone (1 mg/kg) (GL-3 and plasma lyso-Gb3 [8]; seven days): significantly lower levels of plasma lyso-Gb3 | reduction of GL-3 in heart tissue compared to 1 mg/kg Fabrazyme (GL-3 and plasma lyso-Gb3 [8]; seven days (FIG. 15A)): significantly enhanced reduction of GL-3 | reduction in GL-3 in kidney (GL-3 and plasma lyso-Gb3 [8]; seven days (FIG. 15B)): enhanced substrate reduction | GL-3 in skin compared to Fabrazyme alone (1 mg/kg) (GL-3 and plasma lyso-Gb3 [8]; seven days (FIG. 15C)): significantly lower level of GL-3 in skin
